Results as given in patent US6599883B1, “Nasal delivery of xylitol” (Nastech Pharmaceutical Company, Inc., priority 1998, dated 2003).

Tests used:
[1] = format: physicochemical
Protocol: A composition is prepared for a dilute bathing formulation of xylitol for nasal delivery. The concentration of xylitol in the solution may be 10%-60% by weight/volume. This corresponds to 10-60 grams of xylitol per 100 ml of solution. xylitol is soluble in solution up to 64.2 grams per 100 ml of solution.

Streptococcus pneumonia = settings: during its logarithmic growth phase; cited from earlier work

soluble in solution [1]: up to 64.2 grams per 100 ml of solution
SMILES: OC[C@@H](O)[C@H](O)[C@@H](O)CO [xylitol]
growth of Streptococcus pneumonia in vitro (Streptococcus pneumonia): inhibits the growth
